For twelve compounds, solubility results are on record in US20260109870A1, “PEPTIDE-BASED NON-CRYSTALLINE MATERIALS AND COMPOSITIONS AND PROCESSES FOR OBTAINING SAME” (Ramot at Tel-Aviv University Ltd., priority 2022, published 2026).

The conditions of data set [1]: in water; marked (literature); cited from earlier work.
A short description of data set [2]: Solubility limit in water (gradual water addition, vortex, light microscopy).
Protocol: (§1) Each amino acid or peptide was weighed. Water was gradually added at room temperature and the solution was vortexed. After each addition of water, the solution was sampled and evaluated under light microscopy; this process was repeated until no visible particles were detected and the concentration was calculated and determined as the solubility limit of the peptide in water.
A short description of the next data set: physchem. Conditions: water.

Like-named read-outs stand apart in the source and are kept apart here. Residues, ends and D or L forms follow the SMILES beside them.

Protocol for physchem: as §1

Regarding `N[C@@H](Cc1ccccc1)C(=O)O` [F, phenylalanine], in data set [1], the solubility was 29.6 (literature) milligram/milliliter.

In data set [2], `N[C@@H](Cc1ccccc1)C(=O)N[C@@H](Cc1ccccc1)C(=O)N[C@@H](Cc1ccccc1)C(=O)O` [FFF, reference compound] (H-Phe-Phe-Phe-OH) returned a solubility of less than 1 mg/mL.

In turn, `N[C@@H](Cc1ccccc1)C(=O)N[C@@H](Cc1ccccc1)C(=O)N[C@@H](Cc1ccc(O)cc1)C(=O)O` [FFY] (H-Phe-Phe-Tyr-OH) showed a solubility in data set [2] of more than 250 mg/mL.

Consider `N[C@@H](Cc1ccccc1)C(=O)N[C@@H](Cc1ccc(O)cc1)C(=O)N[C@@H](Cc1ccccc1)C(=O)O` [FYF, reference compound] (H-Phe-Tyr-Phe-OH), for which the solubility in data set [2] was less than 5 mg/mL.

In the case of `N[C@@H](Cc1ccccc1)C(=O)N[C@@H](Cc1ccc(O)cc1)C(=O)N[C@@H](Cc1ccc(O)cc1)C(=O)O` [FYY] (H-Phe-Tyr-Tyr-OH), the solubility in data set [2] is more than 1000 mg/mL.

Take `N[C@@H](Cc1ccccc1)C(=O)N[C@@H](Cc1ccc(O)cc1)C(=O)O` [FY] (H-Phe-Tyr-OH): the solubility in data set [2] was more than 1000 mg/mL.

For `N[C@@H](Cc1ccc(O)cc1)C(=O)N[C@@H](Cc1ccccc1)C(=O)N[C@@H](Cc1ccccc1)C(=O)O` [YFF] (H-Tyr-Phe-Phe-OH), in data set [2], the solubility is more than 250 mg/mL.

As for `N[C@@H](Cc1ccc(O)cc1)C(=O)N[C@@H](Cc1ccccc1)C(=O)N[C@@H](Cc1ccc(O)cc1)C(=O)O` [YFY] (H-Tyr-Phe-Tyr-OH), the solubility in data set [2] is more than 1000 mg/mL.

With `N[C@@H](Cc1ccc(O)cc1)C(=O)N[C@@H](Cc1ccccc1)C(=O)O` [YF] (H-Tyr-Phe-OH), in the data set “physchem”, the solubility was more than 1000 mg/mL.

On to `N[C@@H](Cc1ccc(O)cc1)C(=O)N[C@@H](Cc1ccc(O)cc1)C(=O)N[C@@H](Cc1ccccc1)C(=O)O` [YYF] (H-Tyr-Tyr-Phe-OH), for which, in data set [2], the solubility was more than 1000 mg/mL.

Consider `N[C@@H](Cc1ccc(O)cc1)C(=O)N[C@@H](Cc1ccc(O)cc1)C(=O)N[C@@H](Cc1ccc(O)cc1)C(=O)O` [YYY, Tyr-Tyr-Tyr] (H-Tyr-Tyr-Tyr-OH), for which the solubility in data set [2] is more than 1000 mg/mL.

In turn, `N[C@@H](Cc1ccc(O)cc1)C(=O)N[C@@H](Cc1ccc(O)cc1)C(=O)O` [YY] (H-Tyr-Tyr-OH) registered a solubility in the data set “physchem” of more than 1000 mg/mL.
